Results from a compilation of properties of binary mixtures (doi:10.1039/b819795b).

Test: xn = mol fraction of the nth substance listed
Details: 101 kPa

CCCCCCCC[n+]1ccn(C)c1.F[P-](F)(F)(F)(F)F + CCCCCCC
speed of sound [m/s]
Details	x2 = 0	x2 = 0.0074	x2 = 0.0516	x2 = 0.0803
293.15 K	1424	1421	1406	–
298.15 K	1408	–	1391	1381
303.15 K	–	1391	–	1366

CCCCCCCC[n+]1ccn(C)c1.F[P-](F)(F)(F)(F)F + CCCCCC
speed of sound [m/s]
Details	x2 = 0	x2 = 0.0468	x2 = 0.0712	x2 = 0.0893	x2 = 0.1268
293.15 K	1424	1408	1401	1394	–
298.15 K	1408	1393	1385	–	1364
303.15 K	1393	1378	–	1364	1349

CCCCCC + CCCCCCCC[n+]1ccn(C)c1.F[P-](F)(F)(F)(F)F
x1 = 1
Details	speed of sound [m/s]
293.15 K	1100
298.15 K	1078

CCCCCCC + CCCCCCCC[n+]1ccn(C)c1.F[P-](F)(F)(F)(F)F
x1 = 1
Details	speed of sound [m/s]
293.15 K	1153
298.15 K	1131
303.15 K	1110

CC(C)O + CCCCCCCC[n+]1ccn(C)c1.F[P-](F)(F)(F)(F)F
Details	speed of sound [m/s]
293.15 K, x1 = 1	1156

CCCCCCCC[n+]1ccn(C)c1.F[P-](F)(F)(F)(F)F + CC(C)O
speed of sound [m/s]
Details	293.15 K	298.15 K	303.15 K
x1 = 0.0004	1156	1140	1121
x1 = 0.0009	1157	1140	1122
x1 = 0.0014	1157	–	1122
x1 = 0.0024	1158	1141	1123
x1 = 0.003	1158	1141	1123
x1 = 0.0053	–	1142	1125
x1 = 0.0098	–	–	1128
x2 = 0	1424	1408	1393
x2 = 0.0069	–	1407	1393
x2 = 0.0965	1412	1397	1384
x2 = 0.2012	1395	1382	1368
x2 = 0.304	1379	1366	–
x2 = 0.4009	1364	1351	1339
x2 = 0.4943	1340	–	–
x2 = 0.5989	1310	1296	–
x2 = 0.6487	–	1279	1267
x2 = 0.6964	–	1261	1252
x2 = 0.7469	–	–	1235
